Results on 21 molecules are retold here after patent US8354443B2, “Cyclopropane indolinone derivatives” (Hoffmann-La Roche Inc., priority 2009, dated 2013).

The test deals with recombinant AMPK proteins (α1β1γ1, α2β1γ1, α1(1-335), α1(1-394) or α2(1-394)). Briefly: Scintillation Proximity Assay (AMPK activation). It counts as biochemical, human. Conditions: effective concentration of activator for 50% of maximal enzyme activity; 2 hr at 30° C.; AMPK form not specified. The source says:
Recombinant human AMPK α1β1γ1, α2β1γ1 or AMPK a subunit truncations α1 (1-335), α1 (1-394) and α2(1-394) were constructed, expressed and purified as described previously (Pang, T., Zhang, Z. S., Gu, M., Qiu, B. Y., Yu, L. F., Cao, P. R., Shao, W., Su, M. B., Li, J. Y., Nan, F. J., and Li, J. (2008) or purchased from Invitrogen (San Diego, Calif., U.S.A.). Rat liver AMPK heterotrimer enzyme was obtained from Upstate (Billerica, Mass., U.S.A.).
Before the Scintillation Proximity Assay (SPA) assay, 200 nM recombinant AMPK proteins (α1β1γ1, α2β1γ1, α1(1-335), α1(1-394) or α2(1-394)) were fully phosphorylated as described previously (Pang et al., 2008). SPA reactions were performed in 96-well plates at a final volume of 50 μl containing 20 mM Tris-HCl pH 7.5, 5 mM MgCl2, 1 mM DTT, 2 μM biotin-SAMS, 2 μM ATP, 0.2 μCi/well [γ-^33P]ATP, and various amount of activator. Reactions were initiated by the addition of 50 nM recombinant AMPK proteins to the reaction solutions and incubated at 30° C. for 2 hr. After that, reactions were terminated by the addition of 40 μl stop solution containing 80 μg streptavidin-coated SPA beads per well, 50 mM EDTA, 0.1% Triton X-100 in PBS, pH 7.5 and incubated for 1 hr. Finally, a 160 μl suspension solution containing 2.4 M CsCl, 50 mM EDTA, and 0.1% Triton X-100 in PBS (pH 7.5) was added to the reaction solution to suspend SPA beads completely. SPA signals were determined with a Wallac MicroBeta plate counter (PerkinElmer) 30 min later for calculation of the amount of product formed. The amount of products formed in 2 hr was plotted against activator concentrations to determine the effective concentration of the activator (EC50) required for 50% of maximal enzyme activity.
As for `CCN(CC)CCN1C(=O)[C@]2(C[C@@H]2c2ccc(Cl)cc2)c2ccccc21` (racemic) [Example 71, (1S,2R) and (1R,2S)-2-(4-chlorophenyl)-1′-(2-(diethylamino)ethyl)spiro[cyclopropane-1,3′-indolin]-2′-one], the EC50 came to 3.2 µM.
As for `O=C1N(CCN2CCOCC2)c2ccccc2[C@@]12C[C@@H]2c1ccc(Cl)cc1` (racemic) [Example 72, (1S,2R) and (1R,2S)-2-(4-chlorophenyl)-1′-(2-morpholinoethyl) spiro[cyclopropane-1,3′-indolin]-2′-one], the figure is 4.1 µM; as for `CS(=O)(=O)N1CCC(CN2C(=O)[C@]3(C[C@@H]3c3ccc(Cl)cc3)c3ccccc32)CC1` (racemic) [Example 73, (1S,2R) and (1R,2S)-2-(4-chlorophenyl)-1′-((1-(methylsulfonyl)piperidin-4-yl)methyl) Spiro[cyclopropane-1,3′-indolin]-2′-one], 1.65 µM.
As for `CC(C)N1CCN(CCN2C(=O)[C@]3(C[C@@H]3c3ccc(Cl)cc3)c3ccccc32)CC1` (racemic) [Example 74, (1S,2R) and (1R,2S)-2-(4-chlorophenyl)-1′-(2-(4-isopropylpiperazin-1-yl)ethyl)spiro [cyclopropane-1,3′-indolin]-2′-one], the figure is 8.8 µM; as for `CN(C)CCN1CCN(CCN2C(=O)[C@]3(C[C@@H]3c3ccc(Cl)cc3)c3ccccc32)CC1` (racemic) [Example 75, (1S,2R) and (1R,2S)-2-(4-chlorophenyl)-1′-(2-(4-(2-(dimethylamino)ethyl)piperazin-1-yl)ethyl) Spiro[cyclopropane-1,3′-indolin]-2′-one], 5.91 µM.
The result for `O=C1N(Cc2ccncc2)c2ccccc2[C@]12C[C@H]2c1ccc(Cl)cc1` (racemic) [Example 78, (1R,2S) and (1S,2R)-2-(4-chlorophenyl)-1′-(pyridin-4-ylmethyl)spiro[cyclopropane-1,3′-indolin]-2′-one] reads 4.2 µM; that for `O=C1N(Cc2cccnc2)c2ccccc2[C@@]12C[C@@H]2c1ccc(Cl)cc1` (racemic) [Example 79, (1S,2R) and (2R,1S)-2-(4-chlorophenyl)-1′-(pyridin-3-ylmethyl)spiro[cyclopropane-1,3′-indolin]-2′-one], 2.6 µM.
As to `O=C(O)Cn1cnc(N2C(=O)[C@]3(C[C@@H]3c3ccc(Cl)cc3)c3ccccc32)c1` (racemic) [Example 80, (1S,2R) and (1R,2S)-2-(4-(2-(4-chlorophenyl)-2′-oxospiro[cyclopropane-1,3′-indoline]-1′-yl)-1 H-imidazol-1-yl)acetic acid], the EC50 was determined as 1.25 µM.
The result for `O=C(O)c1cn(CCN2C(=O)[C@]3(C[C@@H]3c3ccc(Cl)cc3)c3ccccc32)cn1` (racemic) [Example 81, (1S,2R) and (1R,2S)-1-(2-(2-(4-chlorophenyl)-2′-oxospiro[cyclopropane-1,3′-indoline]-1′-yl)ethyl)-1H-imidazole-4-carboxylic acid] reads 2.22 µM; that for `O=C(O)c1cn(CCN2C(=O)[C@]3(C[C@H]3c3ccc(Cl)cc3)c3ccccc32)cn1` (racemic) [Example 82, (1S,2S) and (1R,2R)-1-(2-(2-(4-chlorophenyl)-2′-oxospiro[cyclopropane-1,3′-indoline]-1′-yl)ethyl)-1H-imidazole-4-carboxylic acid], 4.03 µM; that for `O=C(O)c1cccc(N2C(=O)[C@]3(C[C@@H]3c3ccc(Cl)cc3)c3ccccc32)c1` (racemic) [Example 83, (1S,2R) and (1R,2S)-3-(2-(4-chlorophenyl)-2′-oxospiro[cyclopropane-1,3′-indoline]-1′-yl)benzoic acid], 2.59 µM.
The result for `O=C(O)c1cccc(N2C(=O)[C@]3(C[C@H]3c3ccc(Cl)cc3)c3ccccc32)c1` (racemic) [Example 84, (1S,2S) and (1R,2R)-3-(−2-(4-chlorophenyl)-2′-oxospiro[cyclopropane-1,3′-indoline]-1′-yl)benzoic acid] reads 2.98 µM; that for `O=C(c1cccc(N2C(=O)[C@]3(C[C@H]3c3ccc(Cl)cc3)c3ccccc32)c1)N1CCOCC1` (racemic) [Example 85, (1S,2S) and (1R,2R)-2-(4-chlorophenyl)-1′-(3-(morpholine-4-carbonyl)phenyl)spiro [cyclopropane-1,3′-indolin]-2′-one], 0.95 µM; that for `CN1CCN(C(=O)c2cccc(N3C(=O)[C@]4(C[C@H]4c4ccc(Cl)cc4)c4ccccc43)c2)CC1` (racemic) [Example 86, (1S,2S) and (1R,2R)-2-(4-chlorophenyl)-1′-(3-(4-methylpiperazine-1-carbonyl)phenyl) Spiro[cyclopropane-1,3′-indolin]-2′-one], 1.73 µM.
As for `CS(=O)(=O)N1CCN(C(=O)c2cccc(N3C(=O)[C@]4(C[C@H]4c4ccc(Cl)cc4)c4ccccc43)c2)CC1` (racemic) [Example 87, (1S,2S) and (1R,2R)-2-(4-chlorophenyl)-1′-(3-(4-(methylsulfonyl)piperazine-1-carbonyl)phenyl)spiro[cyclopropane-1,3′-indolin]-2′-one], the figure is 6.73 µM; as for `O=C(c1cccc(N2C(=O)[C@@]3(C[C@H]3c3ccc(Cl)cc3)c3ccccc32)c1)N1CCOCC1` (racemic) [Example 88, (1R,2S) and (1S,2R)-2-(4-chlorophenyl)-1′-(3-(morpholine-4-carbonyl)phenyl)spiro [cyclopropane-1,3′-indolin]-2′-one], 2.56 µM; as for `CN1CCN(C(=O)c2cccc(N3C(=O)[C@]4(C[C@@H]4c4ccc(Cl)cc4)c4ccccc43)c2)CC1` (racemic) [Example 89, (1S,2R) and (1R,2S)-2-(4-chlorophenyl)-1′-(3-(4-methylpiperazine-1-carbonyl)phenyl)spiro[cyclopropane-1,3′-indolin]-2′-one], 1.4 µM.
Regarding `CS(=O)(=O)N1CCN(C(=O)c2cccc(N3C(=O)[C@]4(C[C@@H]4c4ccc(Cl)cc4)c4ccccc43)c2)CC1` (racemic) [Example 90, (1R,2S) and (1S,2R)-2-(4-chlorophenyl)-1′-(3-(4-(methylsulfonyl)piperazine-1-carbonyl)phenyl)spiro[cyclopropane-1,3′-indolin]-2′-one], the EC50 stood at 1.47 µM.
The result for `CS(=O)(=O)NC(=O)c1cccc(N2C(=O)[C@@]3(C[C@@H]3c3ccc(Cl)cc3)c3ccccc32)c1` (racemic) [Example 91, (1R,2R) and (1S,2S)-3-(2-(4-chlorophenyl)-2′-oxospiro[cyclopropane-1,3′-indoline]-1′-yl)-N-(methylsulfonyl)benzamide] reads 1.55 µM; that for `O=C(O)c1cc(N2CCOC2=O)cc(N2C(=O)[C@]3(C[C@H]3c3ccc(Cl)cc3)c3ccccc32)c1` (racemic) [Example 92, (1S,2S) and (1R,2R)-3-(2-(4-chlorophenyl)-2′-oxospiro[cyclopropane-1,3′-indoline]-1′-yl)-5-(2-oxooxazolidin-3-yl)benzoic acid], 0.87 µM.
On to `CS(=O)(=O)c1cc(C(=O)O)cc(N2C(=O)[C@]3(C[C@H]3c3ccc(Cl)cc3)c3ccccc32)c1` (racemic) [Example 93, (1S,2S) and (1R,2R)-3-(2-(4-chlorophenyl)-2′-oxospiro[cyclopropane-1,3′-indoline]-1′-yl)-5-(methylsulfonyl)benzoic acid], for which the EC50 was found to be 0.91 µM.
